Measured values as given in patent publication US8435790B2, “Methods of modulating lipid concentrations in eukaryotic cells” (The Regents of the University of California, priority 2008, dated 2013).

Experiments:
[1] = tested on: Drosophila S2 cells; experiment: Lipid-droplet formation in S2 cells, BODIPY staining and microscopy; type: cell-based; settings: S2 cells incubated with 1 mM oleate for 24 hours
Description: Lipid-droplet formation in Drosophila Schneider 2 (S2) cells is an excellent system for functional genomic studies with efficient gene inactivation by RNAi^6. In the exemplified methods below, lipid-droplet formation was induced by incubation with 1 mM oleate for 24 hours. […] BODIPY-stained fluorescent signals corresponded to lipid droplets with a red fluorescent protein mCherry^7 fused with LSD1, which localizes exclusively to the surface of lipid droplets^3 (not shown).
Cell culture. Drosophila S2 cells were cultured in Schneider's Drosophila medium (Invitrogen) supplemented with 10% fetal bovine serum and antibiotics (100 unit/ml penicillin and 100 μg/ml streptomycin) at 25° C. as described^32. RNAi treatment of S2 cells were performed as previously described^10. A segment of pBluescript backbone was used as the template for control RNAi (referred as control RNAi thereafter). Transfection of S2 cells was performed using Cellfectin reagent (Invitrogen). Images of live cells were taken using LSM 510 confocal microscope (Carl Zeiss MicroImaging) with a 63× oil immersion lens.
Image analyses. S2 cells (2.7×10^6 cells/ml) were treated with 1 μg dsRNA in 96-well plates for 3 days, and 1 mM oleic acid was added for 24 h. Cells were fixed in 4% paraformaldehyde/PBS (1 h) and stained with DAPI and BODIPY493/503 in PBS (1 h). […]

[2] = tested on: Drosophila S2 cells; experiment: Cellular triacylglycerol (TG) content of S2 cells; type: cell-based; settings: S2 cells incubated with 1 mM oleate for 24 hours; means of three experiments, P<0.05
Description: FIG. 1A is series of micrographs of S2 cells incubated for 24 hours without (upper) or with (lower) 1 mM oleate. Staining with BODIPY, phase-contrast image, and overlay are shown. FIG. 1B is a graph showing that oleate-loaded cells have an increased triacylglycerol (TG) content. Cells were incubated as in FIG. 1a and their TG (triglyceride) contents were measured. Results are means and s.d. for three experiments; P<0.05. FIG. 1C is a series of micrographs showing that lipid droplet formation occurs in steps. Single cells were followed by four-dimensional confocal time-lapse photography. Representative maximum projections of three-dimensional stacks at the indicated times are shown. Scale bar is 3 μm.
Lipid measurements. Cells were cultured in 6-well plates (16 μg dsRNAs each well) for 3 days, and then 1 mM oleate was added for 24 hours. Cells were lysed in 50 mM Tris-HCl (pH 7.4), 0.25 M sucrose, and samples (250 μg protein) were assayed for lipids. PC was quantified with a colorimetric method^29. TG content was measured from extracted lipids by TLC^30.

CCCCCCCC/C=C\CCCCCCCC(=O)O [oleate, Oleic acid]
lipid droplet size, number, and overall volume (BODIPY staining) [1]: increased | cellular triacylglycerol (TG) content [2]: increased sevenfold
